These results are taken from PubChem BioAssay AID1013 (Columbia University Molecular Screening Center, 2008).

In assay [1] the test system is TNFa-stimulated cells, VCAM1 expression imaging. The assay is described as follows: blockers of VCAM1 upregulation by TNFa – imaging, TNFa stimulus, retest and dose response, confirmation (AID 1013).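 As to cell count: compound on cells 1 h before TNFa then 24 h more.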
Test in assay [2]: as above
The settings on record: TNFa-stimulated cells, VCAM1 expression imaging; cell count; at 10 µM; stronger effect = lower value.

Molecules are shown by their SMILES. The source made the active and inactive calls. No rule for the calls is given here.

As to `COc1ccc(NC(=O)/C(Cl)=C(/Cl)S(=O)(=O)Cc2ccc(C)cc2)cn1`, the IC50 in assay [1] was 3.25 µM. Further, the cell count in assay [2] came out at 22.9%.
On to `COc1ccc(N=c2oc3ccc(OC)cc3cc2-c2nc3ccccc3[nH]2)cc1`, for which, in assay [1], the IC50 was > 10 µM (inactive). For the same compound, the cell count in assay [2] was determined as 110%.
The corresponding values for `CCOc1ccc(S(=O)(=O)Nc2cc(OC)ccc2OC)cc1` are 1.78 µM and 45.4%.
The corresponding values for `CCC1=Nc2cc(C(=O)NCCCOC)ccc2Sc2ccccc21` are 1.67 µM and 34.9%.
The corresponding values for `CCCC1=Nc2cc(C(=O)NCCCOCC)ccc2Sc2ccccc21` are 1.01 µM and 31.7%.
In the case of `C/C=C/COC(=O)c1[nH]c2c(c1C)C(=O)CC(c1ccco1)C2` (stereo not drawn), in assay [1], the IC50 is > 10 µM (inactive). For the same compound, the cell count in assay [2] amounted to 73.9%.
On to `Cc1ccc(C(=O)c2cc([N+](=O)[O-])ccc2N2CCOCC2)c(C)c1`, for which the IC50 in assay [1] is 2.86 µM. The same compound came in with a cell count in assay [2] of 41.4%.
The corresponding values for `O=C(NC(Nc1nc2ccc([N+](=O)[O-])cc2s1)(C(F)(F)F)C(F)(F)F)c1ccccc1` are 0.34 µM and 46.9%.
With `O=S(=O)(c1ccc(Cl)c(Cl)c1)c1snnc1-c1ccccc1`, the IC50 in assay [1] is 7.93 µM. The cell count in assay [2] was 99.6%.
The corresponding values for `Cc1cccc(OCC(=O)Nc2cc(C)ccc2O)c1` are 0.452 µM and 91.2%.
Take `CC1=C([N+](=O)[O-])C(c2cccc(Br)c2)C2=C(N1)c1ccccc1C2=O` (stereo not drawn): in assay [1], the IC50 is > 10 µM (inactive). For the same compound, the cell count in assay [2] stood at 68.1%.
For `Cc1ccccc1NC1=C/C(=N\S(=O)(=O)c2cccs2)c2ccccc2C1=O`, in assay [1], the IC50 is > 10 µM (inactive). Further, in assay [2], the cell count was 99.8%.
For the compound `CCOc1cc(/C=N\NC(=O)Cc2ccccc2)ccc1OCC(=O)Nc1ccc(C)c(C)c1`, the IC50 in assay [1] is > 10 µM (inactive). The compound further registered a cell count in assay [2] of 110%.
The matching figures for `COc1ccc(-n2nnnc2S(=O)(=O)CC(=O)N2CCCCC2)cc1`: 3.02 µM and 4.64%.
The matching figures for `C/C(=N\O)c1ccc2c3ccccc3n(C)c2c1`: > 10 µM (inactive) and 89%.
The corresponding values for `Cc1cc(C)c(/C=N/NC(N)=O)c(C)c1/C=N/NC(N)=O` are 0.517 µM and 71.9%.
Take `CCOC(=O)C1=C(c2ccccc2)O/C(=C(/C#N)C(F)(F)F)S1`: in assay [1], the IC50 is > 10 µM (inactive). The compound further showed a cell count in assay [2] of 107%.
The corresponding values for `O=c1c2ccccc2nc(/C=C/c2ccc([N+](=O)[O-])o2)n1CCCO` are 1.54 µM and 83.1%.
Take `CCCOc1ccccc1C1CC(=O)Nc2cc3c(cc21)OCCO3` (stereo not drawn): the IC50 in assay [1] is > 10 µM (inactive). For the same compound, the cell count in assay [2] came out at 113%.
For the compound `COc1ccccc1-c1cc(C(F)(F)F)nc(S(=O)(=O)CCCC(=O)N2CCCCC2C)n1` (stereo not drawn), in assay [1], the IC50 is > 10 µM (inactive). Further, the cell count in assay [2] is 88.8%.
With `O=S(=O)(c1ccc(Cl)cc1)c1snnc1-c1ccccc1`, in assay [1], the IC50 is 4.86 µM. Moreover, the cell count in assay [2] was 71.6%.
The corresponding values for `Cc1ccc(-c2nc(NC(=O)c3nn(C)cc3[N+](=O)[O-])sc2C)cc1C` are > 10 µM (inactive) and 94.9%.
The matching figures for `CCN(CC)c1ccc2cc(-c3nc4ccccc4n3C)c(=O)oc2c1`: > 10 µM (inactive) and 106%.
The corresponding values for `CSc1nc(N(C)NC(=O)c2cccc(C)c2)c2ccccc2n1` are 0.415 µM and 39.5%.
In the case of `CCSc1nc2ccccc2n1C(=O)/C=C\c1ccc(OC)c(OC)c1`, in assay [1], the IC50 was > 10 µM (inactive). In addition, the cell count in assay [2] is 98.3%.
The matching figures for `Cc1ccc2[nH]c(-c3ccccc3)cc(=O)c2c1`: 4.49 µM and 63.3%.
The matching figures for `CC(/C=N/NC(=O)c1cc(-c2ccncc2)nc2ccccc12)=C\c1ccco1`: 3.6 µM and 30.4%.
Turning to `O=C(N/N=C/C=C/c1ccccc1)c1n[nH]c2c1CCC2`, the IC50 in assay [1] was > 10 µM (inactive). In assay [2], the cell count turned out to be 103%.
The matching figures for `CCN(CC)c1ccc2c(c1)OC(N)=C(C#N)C2c1cccnc1` (stereo not drawn): 0.38 µM and 29.8%.
The corresponding values for `O=S(=O)(C/C(=C/CO)S(=O)(=O)c1ccccc1)c1ccccc1` are 1.63 µM and 9.93%.
The corresponding values for `Oc1ccc(Nc2nc3ccccc3nc2Nc2ccc(O)cc2)cc1` are 3.26 µM and 1.62%.
Regarding `CN(C)c1ccc(C(=O)c2ccc(N(C)C)c3ccccc23)cc1`, the 50% inhibitory concentration (IC50) in assay [1] was 1.72 µM. Also, the cell count in assay [2] was found to be 27.7%.
The matching figures for `O=[N+]([O-])c1ccc(O)c(/C=N/Nc2ccc(Cl)nn2)c1`: > 10 µM (inactive) and 106%.
The matching figures for `CCOC(=O)c1[nH]c(C)c(C(=O)c2ccc(C)cc2)c1C`: > 10 µM (inactive) and 85.6%.

A word on the IC50: it is the concentration that gives 50% inhibition.
